Patent publication US20210361741A1, “NANOPARTICLE FORMULATIONS AND METHODS OF USE FOR ALPHA CONNEXIN C-TERMINAL PEPTIDES” (FIRSTSTRING RESEARCH, INC., priority 2018, published 2021)

Tested on: U87MG GBM cells
Assay: Xenograft GBM mouse model
Format: in vivo
Conditions: TMZ alone, 7.5 mg/kg i.p. every other day
Description: Effect of αCT1-NP in a xenograft GBM mouse model. To assess the in vivo safety and efficacy of αCT1-NPs, a mouse xenograft model of GBM was employed U87MG GBM cells were cultured and 1×10^6 cells were mixed with 100 μL of Matrigel® Matrix and subcutaneously injected into the flanks of SCID/beige anesthetized mice using 23 gauge needles. After 8 days, mice were divided into 2 groups: (i) TMZ alone, and (ii) TMZ+αCT1 particles. The treatment regimen was as follows: TMZ (7.5 mg/kg) was administered by intraperitoneal injection with an insulin syringe every other day starting on day 8 for both groups 1 and 2 mice. αCT1 particles were reconstituted in 1×PBS from −80° C. storage and 100 uL aliquots were prepared and stored at −20° C. The concentration of αCT1 delivered in 1 dose of particles (100 uL) was approximately 8 μM at 1.2 mg particles/kg of mouse body weight. αCT1 particles were delivered at the tumor growth site every other day starting on day 10 for group 2 mice using insulin syringes. Group 2 mice received a total of 6 injections of particles during the course of treatment. This treatment regimen continued for 13 days. Tumor sizes were measured every other day using a caliper. Tumor volume was calculated ((length×width2)/2).

## Cn1nnc2c(C(N)=O)ncn2c1=O [TMZ, temozolomide]
  tumor volume: no effect
